We go through 80 molecules from the METLIN SMRT retention time set (Domingo-Almenara et al. 2019).

Each structure is given as a SMILES string.

The data set in a line: gradient 5% acetonitrile 3 min, to 50% in 2 min, to 85% in 15 min, held 3 min, 100 µL/min. The conditions noted are these: column: Zorbax Extend-C18 2.1 x 50 mm; eluents: water / acetonitrile, 0.1% formic acid. The method in brief:
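Using water and acetonitrile that each contained 0.1% formic acid, mixtures of ~100 pure standards were separated at 100 μL/min on a Zorbax Extend-C18 column (2.1 × 50 mm, 1.8 μm). The HPLC fed a quadrupole time-of-flight mass spectrometer working in positive and negative ionization mode, with dead and dwell volumes of 40 μL and 900 μL. Data were acquired over 3 months. Retention time was read from computationally picked adduct peaks after manual inspection of each.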
`CCC1CN2C=Nc3oc(C)c(C(=O)NCCc4ccccc4)c3C2=N1` (stereo not given) gave an RP-LC retention time of 666 s.
The result for `COC(=O)C1=CN(c2ccc(F)cc2)c2ccccc2S1(=O)=O` reads 790 s; that for `CC[C@H](C)C(=O)O[C@H]1C[C@H](O)C=C2C=C[C@H](C)[C@H](CC[C@@H]3C[C@@H](O)CC(=O)O3)[C@H]21`, 891 s.
The result for `O=C(Oc1ccccc1)N1CCC(CNS(=O)(=O)c2ccc(F)c(Cl)c2)CC1` reads 951 s; that for `Cc1nnc(N2CCCC(C(=O)NCCCOC(C)C)C2)c2nn(-c3ccc(Cl)cc3)c(C)c12` (stereo not given), 714 s.
In turn, `COC(=O)c1cccc(NC(=O)CSc2cc(N3CCN(c4ccc(OC)cc4)CC3)ncn2)c1` registered an RP-LC retention time of 905 s.
The result for `CCCNC(=O)CCc1nc2ccccc2n(CC(=O)Nc2ccc(OCC)cc2)c1=O` reads 788 s; that for `Cc1ccc2nc(-c3cc(Br)ccc3F)c(Nc3ccccc3C)n2c1`, 793 s.
The result for `O=C(c1cnn(-c2ccccc2)n1)N1CCN(C(=O)C2CC2c2ccc(F)cc2)CC1` (stereo not given) reads 898 s.
As to `Cc1c(-c2nsc(Nc3ccccc3)n2)nnn1-c1cccc(Cl)c1`, the RP-LC retention time turned out to be 1070 s.
Turning to `C=CCN1C(=O)COc2ccc(-c3csc(NC(=O)C(C)C)n3)cc21`, the RP-LC retention time amounted to 895 s.
In turn, `COC(=O)C1=C(N)C(=O)N(CCc2ccc(OC)c(OC)c2)C1` displayed an RP-LC retention time of 648 s.
`Cc1onc(-c2ccccc2Cl)c1C(=O)N1CCC2(CC1)CC(=O)c1ccccc1O2` gave an RP-LC retention time of 858 s.
`CCN1c2ccc(C)cc2C(=O)NC12CCN(C(=O)c1ccc(F)cc1)CC2` returned an RP-LC retention time of 828 s.
The result for `COc1ccc(-c2ncc3c(n2)CCN(C(=O)c2ccccc2C(F)(F)F)C3)cc1` reads 983 s; that for `COc1ccc(-n2ccc(=O)c(-c3nc(-c4ccc(F)c(Cl)c4)no3)n2)cc1`, 966 s.
The result for `O=C(C1CCC1)N1CCCC1c1nc(-c2cccc(Cl)c2)no1` (stereo not given) reads 1060 s.
The result for `COc1ccc(C)cc1NC(=O)Cn1nc2nc(N3CCCCC3C)ccn2c1=O` (stereo not given) reads 840 s.
For `COc1ccc(Cc2nc(-c3cccc(-c4ccn[nH]4)c3)no2)cc1Cl`, the RP-LC retention time came to 963 s.
Regarding `Cc1cnc(C2CC2)n1C1CCCN(S(=O)(=O)Cc2ccccc2)C1` (stereo not given), the RP-LC retention time was 637 s.
As for `CCn1nccc1C(=O)NCc1cccnc1OC`, the RP-LC retention time was found to be 662 s.
As to `O=C(CCCCCN1CCN(c2ccccc2-c2ccccc2)CC1)NC1CCCc2ccccc21` (stereo not given), the RP-LC retention time stood at 926 s.
Take `O=C(NCc1cccs1)C1CCCN(c2nnc3ccc(C(F)(F)F)cn23)C1` (stereo not given): the RP-LC retention time came to 668 s.
The result for `CCc1ccc(-c2cc3c(=O)n(Cc4noc(CN5CCN(C)CC5)n4)ccn3n2)cc1` reads 647 s; that for `CCn1c(C(=O)NCCCN2CCCC(C)C2)c(N2CCCC2=O)c2cc(OC)ccc21` (stereo not given), 666 s; that for `CCCCNc1nc(N)ncc1[N+](=O)[O-]`, 790 s.
The result for `CCC(NC(=O)c1cn2cc(C)ccc2n1)c1ccc(OC)cc1` (stereo not given) reads 697 s; that for `Cc1ccc(NC(=O)C2CCCN(c3ccc(-n4ccnc4)nn3)C2)cc1F` (stereo not given), 597 s.
The result for `CCOc1ccc(S(=O)(=O)NCCC(O)C(C)(C)C)cc1F` (stereo not given) reads 826 s; that for `O=C(NC1CC1)[C@@H]1C[C@H](Oc2ccccc2)CN1C(=O)C1(c2ccccc2)CC1`, 855 s; that for `NC(=O)c1ccc2c(c1)CCCN2C(=O)c1cccc(Cl)c1`, 724 s.
`Cc1cnc(CC2CCN(C(=O)C(C)C)C2)n1C1CC1` (stereo not given): the RP-LC retention time turned out to be 557 s.
The result for `COc1ccc2c(c1)[C@]13CCCC[C@@H]1[C@H](C2)N(C)CC3` reads 732 s; that for `CCCCN1CCC(N(C(=O)NCCc2ccccc2)C2CCOCC2)CC1`, 671 s.
`C=CCN1C(=O)COc2ccc(-c3csc(NC(=O)/C=C/c4ccc(OCC)c(OC)c4)n3)cc21`: the RP-LC retention time came to 1050 s.
The result for `Cc1[nH]c2ccccc2c1C(=O)C(=O)Nc1ccc2c(c1)OCO2` reads 782 s; that for `CCOC(=O)COC(=O)c1cn(-c2ccc(OCC)cc2)c(=O)c2ccccc12`, 1070 s; that for `COCCn1cc(C(=O)Nc2cccc(C(C)=O)c2)c2nn(-c3ccccc3)c(=O)c-2c1`, 812 s.
`COCCNc1cc(-n2ccnc2C)n2nccc2n1` had an RP-LC retention time of 554 s.
Molecule `CCOC(=O)Cn1c(=O)c2c(nc3n2CC(C)CN3CCc2ccccc2)n(C)c1=O` (stereo not given) came in with an RP-LC retention time of 985 s.
As to `O=C(Nc1ccc(Cl)cc1)N1CCCC(c2nnc(Cc3ccc(F)cc3)o2)C1` (stereo not given), the RP-LC retention time stood at 877 s.
`O=C(Cn1ccn2nc(-c3ccccc3)c(CO)c2c1=O)Nc1ccccc1Cl` returned an RP-LC retention time of 808 s.
The result for `COc1ccc(NC(=O)CSc2ccc(N3CCCC(C(=O)NC4CC4)C3)nn2)cc1Cl` (stereo not given) reads 624 s; that for `COC(=O)c1c(NCc2cccc(OC)c2)c2cc(Cl)ccc2[nH]c1=O`, 816 s; that for `COc1ccc(C2Cn3nnc(-c4nc(-c5ccncc5)no4)c3CO2)cc1` (stereo not given), 873 s.
The result for `Cc1noc(C)c1CNC(=O)c1cccc(OC(F)(F)F)c1` reads 864 s; that for `Cc1oc2ncn(CCC(=O)N3CCN(c4ccccn4)CC3)c(=O)c2c1C`, 573 s.
The molecule `CCN(C(=O)C(=O)c1c[nH]c2ccccc12)c1cccc(Cl)c1` showed an RP-LC retention time of 882 s.
The result for `CN(C(=O)CN1CCCn2nc(C(=O)O)cc2C1=O)c1ccccc1` reads 627 s; that for `CCC(=O)N(CCOC)CC(=O)N1CCc2sccc2C1COc1ccccc1F` (stereo not given), 831 s.
In turn, `Cc1nc(-c2ccc(N3CCN(C(=O)c4ccc5c(c4)OCO5)CC3)nc2)sc1C` returned an RP-LC retention time of 813 s.
The result for `CC1CCCN(c2nn(CC(=O)Nc3cc(F)cc(F)c3)c(=O)c3ccccc23)C1` (stereo not given) reads 1180 s; that for `O=C(Nc1cccc(OCc2nnc(-c3ccc(F)cc3)o2)c1)c1ccsc1`, 920 s.
Molecule `CCn1cc(-c2ccc(OC)cc2)cc1C(=O)N1CCC(C)CC1` yielded an RP-LC retention time of 1110 s.
`O=C(Cn1nc2n(c1=O)CCCCC2)NCc1ccc(F)cc1`: the RP-LC retention time was 671 s.
The result for `COc1ccc(CNC(=O)CCc2conc2-c2ccc(F)cc2)cc1` reads 860 s; that for `CC(=O)c1cccc(NC(=O)c2noc3c2CCCC3)c1`, 874 s.
The result for `CCn1ccc(C(=O)Nc2ccc3c(c2)Sc2ncccc2C(=O)N3C)n1` reads 698 s.
With `CCNC(=O)c1nn(-c2ccc(F)cc2)c(OC)cc1=O`, the RP-LC retention time worked out at 645 s.
For `CN(C)CC(O)Cn1c2ccc(Br)cc2c2cc(Br)ccc21` (stereo not given), the RP-LC retention time was found to be 782 s.
Molecule `Cc1ccccc1-c1nc(C2CCN(S(=O)(=O)c3ccc(C(C)C)cc3)CC2)no1` had an RP-LC retention time of 1340 s.
The result for `COc1cc(OC)cc(-c2nc(C3CC(=O)N(c4ccc(OC)c(OC)c4)C3)no2)c1` (stereo not given) reads 877 s; that for `Cc1ccc(-c2nc3ncccn3c2Nc2ccc(C)cc2C)cc1`, 838 s.
`COc1ccc(Cl)cc1NC(=O)C1CC(=O)N(c2ccc3c(c2)CCN3C(C)=O)C1` (stereo not given) returned an RP-LC retention time of 774 s.
`COc1cc2c(c(O)c1OC)-c1c(cc(OC)c(OC)c1OC)CC(C)C(C)C2` (stereo not given) showed an RP-LC retention time of 1080 s.
Regarding `Cc1cc(C)cc(C(=O)NC2CCN(c3ccccc3)C2=O)c1` (stereo not given), the RP-LC retention time amounted to 862 s.
As for `Cc1ccc(NC(=O)N2CCN(CCn3c(C(F)(F)F)nc4cccnc43)CC2)cc1`, the RP-LC retention time was 648 s.
The result for `CCc1nccn1Cc1noc(-c2ccccc2C)n1` reads 649 s; that for `CSc1ccc(-c2nc3ncccn3c2Nc2ccc(C)c(C)c2)cc1`, 889 s.
In turn, `Cc1cc(N2CCC(C)CC2)n2nc(-c3ccc(Cl)cc3)nc2n1` yielded an RP-LC retention time of 1170 s.
Molecule `CC1(O)CCOC2(CCN(Cc3cn[nH]c3-c3ccc(F)cc3)CC2)C1` (stereo not given) gave an RP-LC retention time of 714 s.
The result for `CCC1CN2C=NC(N3CCN(C(=O)c4ccoc4)CC3)=CC2=N1` (stereo not given) reads 575 s; that for `CS(=O)(=O)Nc1ccc(-c2noc(CN3C(=O)COc4ccccc43)n2)cc1`, 805 s.
The result for `O=C(NCc1ccc(F)cc1)C1CCCN(c2ccc(-c3ccco3)nn2)C1` (stereo not given) reads 622 s.
Take `Cc1cc(C(=O)N2CCC[C@H]2c2nc(-c3ccccc3)n[nH]2)nn1C`: the RP-LC retention time turned out to be 654 s.
The result for `Cc1ccc(F)cc1NS(=O)(=O)c1c[nH]c2ncccc12` reads 747 s; that for `COc1ccc(NC(=O)c2cnc3c(c2)c(=O)n(C)c(=O)n3-c2ccc(F)cc2)cc1`, 856 s; that for `COc1ccc(Cl)cc1NC(=O)CSc1nccc(N2CCN(c3cc(C)ccc3C)CC2)n1`, 1160 s.
The result for `CC(=O)NCc1nc(-c2ccc3oc(-c4ccccc4)nc3c2)no1` reads 805 s; that for `CN(C(=O)Cn1c(CCO)nc2ccccc21)c1ccccc1`, 554 s.
